“Also recorded” adds a separate entry of the source.

These results are taken from patent publication US20230285570A1, “THERAPEUTICALLY USEFUL CURE-PRO MOLECULES FOR E3 LIGASE MEDIATED DEGRADATION OF PROTEINS, AND METHODS OF MAKING AND USING THEM” (CORNELL UNIVERSITY, priority 2020, published 2023).

Holding throughout (assay type): cell-based
In experiment [1] the target is T1, c-MYC (Homo sapiens, UniProt P01106). Description: CURE-PRO-mediated c-MYC degradation in HCT1116 cells, Western blot or WES. Conditions: 1:1 with MDM2 ligand 8310, HCT1116, 24 h, 10 nM-10 μM each. Further details: HT29 cells (2.5×10^6) were treated for 24 h with the compounds solubilized in DMSO; endogenous in cells; host or cells: HT29.
In experiment [2] the target is T1, c-MYC. The experiment is described as above. Further details: endogenous in cells; host or cells: HT29. The settings on record: 1:1 with MDM2 ligand 8312, HCT1116, 24 h, 10 nM-10 μM each. The protocol: (§1) Namalwa, Ramosm HeLa, MCF7, or HT29 HCT116 cells (2.5-3×10^6) were treated for 24 hours with the indicated compounds solubilized in DMSO. The cells were washed in ice-cold PBS and were then lysed in RIPA lysis buffer (150 mM NaCl, 5 mM EDTA, 1% NP-40, 0.5% sodium deoxycholate, 0.1% SDS, 50 mM Tris, pH 8.0.) with Roche protease inhibitor complete cocktail and phosphatase inhibitors (10 mM sodium fluoride, 10 mM sodium pyrophosphate, 1 mM sodium orthovanadate and 20 mM β-glycerophosphate). The total protein concentrations were determined by Bradford Protein Assay (Pierce) and 10-20 μg of protein was loaded onto 4-15% Tris-Glycine gradient gels (Biorad). After standard gel electrophoresis, the separated proteins were transferred to PVDF membrane by wet transfer. The immunoblots were then blocked for 1 hour in 5% skim milk in TBST or 5% BSA in TBST, according to manufacturer's instructions, before an overnight incubation at 4° C. with indicated antibodies and membranes. Membranes were then incubated with the appropriate horseradish peroxidase-conjugated secondary antibodies (1:5,000 dilution) for 1 h at room temperature and the bands were visualized using the Clarity Max Western ECL Substrate (Biorad) and the ChemiDoc Imaging System (Biorad). Signal was detected with ECL Western Blotting Substrate (Pierce) and X-ray film processed with a Konica SRX-101 X-ray film processor or captured by Bio-Rad's Chemidoc Imaging system.
WES Simple analysis was performed on WES system (ProteinSimple-Biotechne) according to the manufacturer's instructions. Total protein concentrations of cell lysates were determined by the Pierce BCA kit (Thermo Fisher). 3 μL of 0.3 μg/μL of the protein lysate was loaded onto a 12- to 230-kDa WES assay plate (ProteinSimple) where 300 nL sample was withdrawn through a capillary, subjected to electrophoretic separation of proteins by size, and followed by the simultaneous, HRP-based detection of proteins using the Anti-Rabbit Detection Module (Proteinsimple: #DM-001). The electropherograms were checked then the automatic peak detection was manually corrected if it was required.
HCT1116 cells (2.5×10^6) were treated for 24 h with the compounds solubilized in DMSO. Compounds were added at 10 nM-10 μM each. Standardized protein samples were electrophoresed and imaged as described in the immunoblotting or WES (Proteinsimple) sections above. c-MYC monomers, MYC-N20 (FIG. 100, a 10074-G5 derivative comprising diol linkers), and MYC-N10 (FIG. 101), MYC-N6 (FIG. 102), and MYC-N9 (FIG. 103) (10058-F4 derivatives comprising diol linkers), and MDM2 ligands, 8310 and 8312 (Nutlin 3a derivatives comprising boronic acid linkers) were combined in a 1:1 ratio.
HCT1116 cells (2.5×10^6) were treated for 24 h with the compounds solubilized in DMSO. Compounds were added at 1 μM-10 μM each.

The target in experiment [3] is T1, c-MYC. The experiment in a line: Summary of C-MYC degradation by CURE-PRO pairs, estimated from Western Blot or WES. The settings on record: for Degradation of C-MYC, combination with MDM2 ligand 8312: Table 11, aromatic 1,2-diol MYC ligand + 8312; for Degradation of C-MYC, combination with MDM2 ligand 8310: Table 11, aromatic 1,2-diol MYC ligand + 8310. Further details: endogenous in cells; host or cells: HT29. In outline: (§2)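 Namalwa, Ramos, HeLa, MCF7, HT29 or HCT116 cells treated 24 h with compounds in DMSO; RIPA lysates analysed by Western blot (ECL) or capillary WES immunodetection. Check mark denotes 30% to 70% or higher protein degradation.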

Experiment [4] has as its target T2, BRD4 (Homo sapiens, UniProt O60885). The experiment in a line: Summary of BRD4 degradation by CURE-PRO pairs, estimated from Western Blot or WES. Details: endogenous in cells. In outline:
as §2

Experiment [5] concerns the target T2, BRD4. Description: CURE-PRO-mediated BRD4 degradation in MCF7 cells, Western blot. Details: endogenous in cells. The settings on record: 1:1 with VHL ligand 8305, MCF7, 24 h, 100 nM-10 μM. Here is the method: as §1
MCF7 cells (3×10^6) were treated for 24 h with the compounds solubilized in DMSO. Compounds were added at 100 nM-10 μM. Standardized protein samples were electrophoresed and imaged as described in the Immunoblotting section above. FIG. 69 depicts the CURE-PRO-mediated BRD4 degradation for the BRD-E9 monomer and VHL ligands 8305 combined in a 1:1 ratio, and FIG. 70 depicts the CURE-PRO-mediated BRD4 degradation for the BRD-E20 monomer and 8305.
MCF7 cells (3×10^6) were treated for 24 h with the compounds solubilized in DMSO. Compounds were added at 1 μM-10 μM. Standardized protein samples were electrophoresed and imaged as described in the Immunoblotting section above. FIG. 71 depicts the CURE-PRO-mediated BRD4 degradation for the BRD-E50 monomer and VHL ligands 8305 and 8304 combined in a 1:1 ratio.
In general terms: A western blot detects proteins with antibodies after separation by electrophoresis.

Experiment [6] addresses T1, c-MYC. Description: CURE-PRO-mediated c-MYC degradation in HT29 cells, Western blot. Further details: endogenous in cells; host or cells: HT29. The protocol:
as §1
HT29 cells (2.5×10^6) were treated for 24 h with the compounds solubilized in DMSO. Compounds were added at 10 nM-10 μM each, as indicated in the description of the figures. Standardized protein samples were electrophoresed and imaged as described in the immunoblotting section above. c-MYC monomers (10058-F4 derivatives comprising catechol linkers), and CRBN ligands, 8048 and 8049 (pomalidomide derivatives comprising boronic acid linkers) combined in a 1:1 ratio.
HT29 cells (2.5×10^6) were treated for 24 h with the compounds solubilized in DMSO. Compounds were added at 100 nM-10 μM each.
HT29 cells (2.5×10^6) were treated for 24 h with the compounds solubilized in DMSO. Compounds were added at 100 nM-10 μM each. Standardized protein samples were electrophoresed and imaged as described in the immunoblotting section above. c-MYC monomer, MYC-E1, (a 10058-F4 derivative comprising boronic acid linkers), and CRBN ligands, 8046, 8047 and 8066 (pomalidomide derivatives comprising diol linkers) combined in a 1:1 ratio.
HT29 cells (2.5×10^6) were treated for 24 h with the compounds solubilized in DMSO. Compounds were added at 100 nM-10 μM each. Standardized protein samples were electrophoresed and imaged as described in the immunoblotting section above. c-MYC monomers, MYC-E6 (FIG. 90), MYC-E10 (FIG. 91), and MYC-E16 (FIG. 92) (10074-G5 derivatives comprising boronic acid linkers), and CRBN ligands, 8046, 8047 and 8066 (pomalidomide derivatives comprising diol linkers) combined in a 1:1 ratio.
HT29 cells (2.5×10^6) were treated for 24 h with the compounds solubilized in DMSO. Compounds were added at 10 nM-10 μM each. Standardized protein samples were electrophoresed and imaged as described in the immunoblotting section above. c-MYC monomer, MYC-N16 (FIG. 93) (10074-G5 derivatives comprising diol linkers), and VHL ligands, 8297 and 8298 (VH-298 derivatives comprising boronic acid linkers) were combined in a 1:1 ratio.
HT29 cells (2.5×10^6) were treated for 24 h with the compounds solubilized in DMSO. Compounds were added at 10 nM-10 μM each. Standardized protein samples were electrophoresed and imaged as described in the immunoblotting section above. c-MYC monomers, MYC-E7 (FIG. 96), MYC-E10 (FIG. 97), and MYC-E17 (FIG. 98), (10074-G5 derivatives comprising boronic acid linkers), and VHL ligands, 8297 and 8298 (VH-298 derivatives comprising diol linkers) were combined in a 1:1 ratio.

For experiment [7], the target named is T1, c-MYC. The experiment in a line: CURE-PRO-mediated c-MYC degradation in MCF7 cells, Western blot. Further details: endogenous in cells. Here is the method:
as §1
MCF7 cells (3×10^6) were treated for 24 h with the compounds solubilized in DMSO. Compounds were added at 100 nM-10 μM each. Standardized protein samples were electrophoresed and imaged as described in the immunoblotting section above. c-MYC monomer, MYC-E33 (FIG. 99) (a 10058-F4 derivatives comprising boronic acid linkers), and VHL ligands, 8304 and 8305 (VH-298 derivatives comprising diol linkers) were combined in a 1:1 ratio.

T1 sequence (P01106 whole entry): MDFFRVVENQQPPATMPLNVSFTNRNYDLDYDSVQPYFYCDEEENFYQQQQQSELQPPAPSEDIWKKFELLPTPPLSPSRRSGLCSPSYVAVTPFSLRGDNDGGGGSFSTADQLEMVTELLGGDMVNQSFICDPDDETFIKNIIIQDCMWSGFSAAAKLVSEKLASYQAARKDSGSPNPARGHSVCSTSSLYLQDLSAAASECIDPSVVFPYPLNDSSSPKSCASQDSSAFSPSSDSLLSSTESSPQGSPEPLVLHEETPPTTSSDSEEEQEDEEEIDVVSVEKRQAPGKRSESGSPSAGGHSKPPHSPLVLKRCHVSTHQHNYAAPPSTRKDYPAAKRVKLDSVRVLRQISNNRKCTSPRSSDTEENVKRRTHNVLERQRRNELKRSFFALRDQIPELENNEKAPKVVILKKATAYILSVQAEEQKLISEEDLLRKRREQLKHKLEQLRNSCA

For `CCc1ccc(/C=C2\SC(=O)N(CCOCCNC(=O)c3cccc(O)c3O)C2=O)cc1` [MYC-N10], the c-MYC degradation entry on c-MYC [1] and on c-MYC [2] was “caused degradation of c-MYC at higher concentrations; also recorded: Degradation was noted” each time. In addition, at c-MYC [3], the “Degradation of C-MYC, combination with MDM2 ligand 8312” value is listed as “√ (A black check mark indicates efficacy of 30% to 70% or higher protein degradation)”.
Take `COc1ccc2c(c1)C(c1ccc(Cl)cc1)=N[C@@H](CC(=O)NCc1ccc(B(O)O)cc1)c1nnc(C)n1-2` [BRD-E9, (4-((2-((4S)-6-(4-chlorophenyl)-8-methoxy-1-methyl-4H-benzo[f][1,2,4]triazolo[4,3-a][1,4]diazepin-4-yl)acetamido)methyl)phenyl)boronic acid]: the “Degradation of BRD4, combination with CRBN ligand 8047” value at BRD4 [4] (Table 1, aryl-boronic acid BRD4 ligand + 8047) is “√ (A black check mark indicates efficacy of 30% to 70% or higher protein degradation)”. Further, on BRD4 [4] (Table 3, aryl-boronic acid BRD4 ligand + 8305), the “Degradation of BRD4, combination with VHL ligand 8305” value is “√ (A black check mark indicates efficacy of 30% to 70% or higher protein degradation)”. Further, on BRD4 [5], the BRD4 degradation result was “there is degradation of BRD4”.
Regarding `CCc1ccc(/C=C2\SC(=O)N(CCCc3cccc(O)c3O)C2=O)cc1` [MYC-N6], the c-MYC degradation entry at c-MYC [1] is “caused degradation of c-MYC protein; also recorded: Degradation was noted”. The “Degradation of C-MYC, combination with MDM2 ligand 8310” value (from here on “Degradation … with MDM2 ligand 8310”) at c-MYC [3] was “√ (A black check mark indicates efficacy of 30% to 70% or higher protein degradation)”.
With `O=C(NCCNC(=O)c1cccc(O)c1O)c1ccc(Nc2ccc([N+](=O)[O-])c3nonc23)cc1` [MYC-N20], the c-MYC degradation result on c-MYC [1] is listed as “caused degradation of c-MYC protein”. The c-MYC degradation result at c-MYC [2] is given as “negligible effects”. In addition, at c-MYC [3], the “Degradation … with MDM2 ligand 8310” value is “√ (A black check mark indicates efficacy of 30% to 70% or higher protein degradation)” and the “Degradation of C-MYC, combination with MDM2 ligand 8312” value was “√ (A black check mark indicates efficacy of 30% to 70% or higher protein degradation)”.
On to `CCc1ccc(/C=C2\SC(=O)N(CCOCCNC(=O)c3ccc(O)c(O)c3)C2=O)cc1` [MYC-N9], for which the c-MYC degradation entry on c-MYC [6] (1:1 with CRBN ligand 8048, HT29, 24 h, 10 nM-10 μM each) is given as “some degradation is noted; also recorded: caused degradation of c-MYC”; at c-MYC [6] (1:1 with CRBN ligand 8049, HT29, 24 h, 10 nM-10 μM each) it was “produces greater c-MYC degradation than 8048; also recorded: caused degradation of c-MYC”; at c-MYC [6] (c-MYC monomer alone, HT29, 24 h, 10 nM-10 μM), “there is no degradation of c-MYC”; on c-MYC [1], “caused degradation of c-MYC at higher concentrations”; at c-MYC [2], “caused degradation of c-MYC at higher concentrations”. The “Degradation … with MDM2 ligand 8310” value at c-MYC [3] is “√ (A black check mark indicates efficacy of 30% to 70% or higher protein degradation)”.
For the compound `CCc1ccc(/C=C2\SC(=O)N(CCNC(=O)c3ccc(B(O)O)cc3)C2=O)cc1` [MYC-E33], the c-MYC degradation entry on c-MYC [7] (1:1 with VHL ligand 8304, MCF7, 24 h, 100 nM-10 μM each) is reported as “caused partial degradation of c-MYC”; on c-MYC [7] (1:1 with VHL ligand 8305, MCF7, 24 h, 100 nM-10 μM each), “no loss of c-MYC protein was observed”; on c-MYC [7] (c-MYC monomer alone, MCF7, 24 h, 100 nM-10 μM) it was “no loss of c-MYC protein was observed”.
